Where two headings read alike, the source gives them in different places.
What was measured:
[1] = system: MPP^+-treated BE(2)-M17 cells; experiment: cell viability (MTT) in MPP^+-treated BE(2)-M17 cells; format: cell-based; conditions: Homo sapiens, read-out: cell viability
Method: To examine neuroprotective potential of LM compounds, BE(2)-M17 cells were plated onto 96-well plate [1 × 10^4/well for cell viability and lactate dehydrogenase (LDH) release assays] or 24-well plate (5 × 10^4/well for ROS assay) with retinoic acid addition (5 μM) on day 1 to initiate neuronal differentiation. On day 5, after removing retinoic acid, cells were pre-treated with LM compounds (1–10 μM) for 8 h, followed by addition of 0.62 mM MPP^+ for 40 h. The cell viability was evaluated by MTT assay as described, and the release of LDH in cell culture medium was measured by using LDH cytotoxicity assay kit (Cayman Chemical). The absorbance was read at 490 nm with Multiskan GO microplate reader (Thermo Fisher Scientific).

NRF2 = experiment: Western blot NRF2 in MPP^+-treated BE(2)-M17 cells; format: cell-based, human; conditions: BE(2)-M17, compound 10 μM + 0.62 mM MPP^+; MPP^+ alone 75%; untreated = 100%
Method: HMC3 (2 × 10^5/6-well) or BE(2)-M17 (4 × 10^5/6-well) cells were lysed in buffer (composition: 50 mM Tris-HCl pH8.0, 2 mM EDTA pH8.0, 150 mM NaCl, 0.5% sodium deoxycholate, 0.1% SDS, 50 mM NaF, 1% NP40) containing the protease and/or phosphatase inhibitor cocktail (Sigma-Aldrich). After sonication, the lysates were centrifuged (12,000 × g for 10 min at 4°C) and protein concentrations determined (Bradford protein assay; Bio-Rad, Hercules, CA, USA). Aliquots of protein (20 μg) were separated by electrophoresis using 10%−12% SDS–polyacrylamide gel followed by transfer to a polyvinylidene fluoride (PVDF) membrane. After being blocked, the PVDF membrane was stained with NLRP3 (#15101s), caspase-1 (CASP1; #3866s), iNOS (#20609), IL-1β (#12242), CREB (#9192), BCL2-associated X (BAX; #2772; 1:1,000; Cell Signaling), IL-6 (#ab6672), TNF-α (#ab9739), GCLC (#ab41463), BDNF (#ab108319; 1:1,000; Abcam, Cambridge, UK), NLRP1 (#NBP-1-54899; 1:500; Novus Biologicals, Centennial, CO, USA), NRF2 (#ABE413), NQO1 (#N5288), p-CREB (Ser133; #06-519; 1:1,000; Sigma-Aldrich), PGC-1α (#GTX37356; 1:1,000; GeneTex, Irvine, CA, USA), B-cell lymphoma 2 (BCL2; #IR94-392; 1:1,000; iReal Biotechnology, New Taipei City, Taiwan), or glyceraldehyde-3-phosphate dehydrogenase (GAPDH; #30000002; 1:1,000; MDBio, Taipei, Taiwan) primary antibody at room temperature 2 h or 4°C overnight. The immune complexes were detected using horseradish peroxidase (HRP)-conjugated goat anti-mouse or goat anti-rabbit IgG antibody (1:5,000; GeneTex) and chemiluminescent HRP substrate (Millipore, Burlington, MA, USA). Immunoreactive bands were captured (ImageQuant™ LAS 4000, GE Healthcare, Chicago, IL, USA) and quantified (Multi Gauge V3.0 software, Fujifilm, Tokyo, Japan).

[2] = cytotoxicity MTT assay in BE(2)-M17 cells; format: cell-based, human; conditions: human, MTT, 1–100 μM, 24 h
Method: (§1) Human HMC3 microglial (CRL-3304) and neuroblastoma BE(2)-M17 (CRL-2267) cells were obtained from American Type Culture Collection. BE(2)-M17 develops a better dopaminergic phenotype than SH-SY5Y when treated with retinoic acid to direct neuronal differentiation (Carvajal-Oliveros et al., [2022]). Cells were routinely maintained in Dulbecco's Modified Eagle Medium-Nutrient Mixture F12 (DMEM-F12) supplemented with 10% fetal bovine serum (FBS; Thermo Fisher Scientific, Waltham, MA, USA) in a 37°C incubator, with 95% relative humidity and 5% CO2 (NuAire, Plymouth, MN, USA).
(§2) To evaluate cytotoxicity of LM compounds and MPP^+, HMC3 (1 × 10^4) or BE(2)-M17 (2 × 10^4) cells were plated on 96-well dishes, grown for 20 h, and treated with LM compounds (1–100 μM) or MPP^+ [HMC3: 0–8 mM; BE(2)-M17: 0–5 mM]. Next day, 20 μl of tetrazolium dye 3-(4,5-dimethylthiazol-2-yl)-2,5-diphenyltetrazolium bromide (MTT, 5 mg/ml; Sigma-Aldrich) was added to the cells at 37°C for 3 h. The resulted insoluble purple formazan products were dissolved by lysis buffer (composition: 10% Triton X-100, 0.1 N HCl, 18% isopropanol). The absorbance of the dissolved product at optical density (OD) 570 nm was read by using a FLx800 fluorescence microplate spectrophotometer (Bio-Tek, Winooski, VT, USA). The half maximal inhibitory concentration (IC50) of LM compounds was determined through the construction of a dose-response curve. MPP^+ at 4 mM (HMC3 cell viability: 65%−69%) or 0.62 mM [BE(2)-M17 cell viability: 79%−84%] was selected to induce inflammation for further experiments.

[3] = cytotoxicity MTT assay in HMC3 cells; format: cell-based, human; conditions: human, MTT, 1–100 μM, 24 h
Method: as §1, §2

[4] = system: tyrosine hydroxylase (TH); experiment: tyrosine hydroxylase immunofluorescence staining in MPP^+-treated BE(2)-M17 cells; format: cell-based, human; conditions: for TH expression (immunofluorescence): BE(2)-M17, compound 10 μM + 0.62 mM MPP^+, MPP^+ alone 107%, untreated = 100%
Method: BE(2)-M17 cells were seeded in 24-well plate (5 × 10^4/well) and treated with retinoic acid, LM compounds (10 μM), and MPP^+ as described. On day 7, cells were fixed (4% PFA), permeabilized (0.1% Triton X-100), blocked (2% BSA), and stained with primary tyrosine hydroxylase (TH; a marker for dopamine-containing neurons; Haavik and Toska, [1998]) antibody (#sc-374047; 1:500; Santa Cruz Biotechnology, Santa Cruz, CA, USA) at 4°C overnight, followed by Alexa Fluor 488-donkey anti-mouse IgG secondary antibody (#A-21202; 1:1,000; Thermo Fisher Scientific) at room temperature for 2 h. Nuclei were detected using DAPI (0.1 μg/ml). Dopaminergic differentiation was examined by fluorescence imaging of Alexa Fluor 488 as described.

Cc1ccc(/C=C/C(=O)c2c(O)c3ccccc3oc2=O)cc1 [LM-016]
viability at 10 µM ([1]; retinoic acid-differentiated BE(2)-M17, compound 10 μM 8 h, then 0.62 mM MPP^+ 40 h, MPP^+ alone 81%, untreated = 100%): 95 to 97% | NRF2 level (NRF2): 99–101% | IC50 at 24 h ([2]; BE(2)-M17 neuroblastoma cells): > 100 µM | IC50 at 24 h ([3]; HMC3 microglial cells): > 100 µM

CN(C)c1ccc(/C=C/C(=O)c2c(O)c3ccccc3oc2=O)cc1 [LM-021, (E)-3-(3-(4-(dimethylamino)phenyl)acryloyl)-4-hydroxy-2H-chromen-2-one]
viability at 10 µM [1]: 95 to 97% | NRF2 level (NRF2): 99–101% | TH expression (immunofluorescence) [4]: 165% | IC50 [2]: > 100 µM | IC50 [3]: > 100 µM

O=C(/C=C/c1ccccc1O)c1c(O)c2ccccc2oc1=O [LM-036]
viability at 10 µM [1]: 95 to 97% | NRF2 level (NRF2): 99–101% | TH expression (immunofluorescence) [4]: 128% | IC50 [2]: > 100 µM | IC50 [3]: > 100 µM

C[n+]1ccc(-c2ccccc2)cc1 [MPP^+, 1-methyl-4-phenyl pyridinium, reference compound]
TH immunofluorescence ([4]; BE(2)-M17, 0.62 mM MPP^+ alone, 40 h, untreated control = 100%): 107%

From article PMC11473416, “Coumarin-chalcone derivatives as dual NLRP1 and NLRP3 inflammasome inhibitors targeting oxidative stress and inflammation in neurotoxin-induced HMC3 and BE(2)-M17 cell models of Parkinson's disease” (Frontiers in Aging Neuroscience, 2024)
